Experimental data published in patent US20060013852A1, “Use of organic compounds” (priority 2002, published 2006).

Experiments:
[1] = system: Ang II induced angiogenic response; experiment: angiogenic response to locally delivered Ang II; type: in vivo; conditions: Ang II delivered locally in mice or rats
Text: (§1) 4. […] CYR61, an angiogenic factor, is induced by Angiotensin II (Ang II) in vascular cells and tissue. Likewise, Ang II induces an angiogenic reponse when Angil is delivered locally in mice or rats.

[2] = system: restenotic lesion formation; experiment: rabbit iliac stent model; type: in vivo, New Zealand White rabbit; conditions: for angiogenic response post-stenting: orally and locally via coated stent, 7 and 28 days post-stenting, vs placebo
Protocol: A combined angioplasty and stenting procedure is performed in New Zealand White rabbit iliac arteries. Iliac artery balloon injury is performed by inflating a 3.0×9.0 mm angioplasty balloon in the mid-portion of the artery followed by “pull-back” of the catheter for 1 balloon length. Balloon injury is repeated 2 times, and a 3.0×12 mm stent is deployed at 6 atm for 30 seconds in the iliac artery. Balloon injury and stent placement is then performed on the contralateral iliac artery in the same manner. A post-stent deployment angiogram is performed. […] The vascular section between the distal aorta and the proximal femoral arteries is excised and cleaned of periadventitial tissue. The stented section of artery is embedded in plastic and sections are taken from the proximal, middle, and distal portions of each stent. […] The vessel area is measured as the area within the EEL. Data are expressed as mean±SEM. […] A P<0.05 is considered statistically significant.
as §1

[3] = system: neointimal lesion formation; experiment: rat carotid artery balloon injury model; type: in vivo; conditions: local delivery to adventitia via Alzet minipump; early (9 days) and late (21-28 days) post-ballooning
Text: Rat carotid arteries are balloon injured using a method described by Clowes et al. Lab. Invest. 1983; 49; 208-215. […] A P<0.05 is considered statistically significant.

[4] = clinical study of aliskiren in dialysis patients after catheter insertion; type: in vivo, human; conditions: aliskiren 100 mg daily for 3 months; observation 6 months
Protocol: One hundred fifty prospective dialysis patients, who undergo successful insertion of an indwelling, large bore catheter, into a vein are selected for study. […] These drugs are administered for 3 consecutive months following catheter insertion.

Compound | inhibition of Ang II induced angiogenic response in vivo [1] | angiogenic response post-stenting [2] | inhibition of neointimal lesions [3] | prevention or reduction of vascular access dysfunction [4] | mean neointimal thickness ([2]; vs placebo-treated animals) | percent stent stenosis ([2]; vs placebo-treated animals)
COCCCOc1cc(C[C@@H](C[C@H](N)[C@@H](O)C[C@H](C(=O)NCC(C)(C)C(N)=O)C(C)C)C(C)C)ccc1OC [aliskiren, 2(S),4(S),5(S),7(S)-N-(3-amino-2,2-dimethyl-3-oxopropyl)-2,7-di(1-methylethyl)-4-hydroxy-5-amino-8-[4-methoxy-3-(3-methoxy-propoxy)phenyl]-octanamide] | potent inhibition | markedly inhibits | potent inhibition | efficacy | – | –
CCCCC(=O)N(Cc1ccc(-c2ccccc2-c2nnn[nH]2)cc1)[C@H](C(=O)O)C(C)C [valsartan] | potent inhibition | markedly inhibits | potent inhibition | – | reduced | reduced
